For assay [1], the system named is L6-myotubes. As to the kind of experiment: Glucose uptake in differentiated L6-myotubes (Biological Example 2). The class given is cell-based. The following applies: for Emax at 10 µM: read-out: Biological example 2 (GU). Here is the method:
(§1) Compounds described in publications referenced and incorporated herein were screened in accordance with the procedures outlined in Biological example 2 and Biological example 3.
Differentiated L6-myotubes were serum-starved overnight in medium containing 0.5% fatty-acid free BSA and stimulated with isoprenaline or the test compound, with a final concentration of 1×10^−5 M. After 1 h 40 min the cells were washed with warm glucose free medium or PBS twice and another portion of agonist was added to the glucose free medium. After 20 min the cells were exposed to 50 nM ^3H-2-deoxyglucose for 10 min before washed with ice cold glucose free medium or PBS three times and lysed with 0.2 M NaOH, 400 μL/well, for 1 h at 60° C. The cell lysate was mixed with 4 mL scintillation buffer (Emulsifier Safe, Perkin Elmer) and the radioactivity was detected in a […] (Tri-Carb 4810TR, Perkin Elmer).

For assay [2], the system named is L6-myotubes. As to the kind of experiment: Measurement of intracellular cAMP levels in differentiated L6-myotubes (Biological Example 3). The format is cell-based. The settings on record: for Emax at 10 µM: 0.25 h. Here is the method: as §1
Differentiated L6-myotubes were serum-starved overnight and stimulated with isoprenaline or the test compound with a final concentration of 1×10^−5 M, for 15 min in stimulation buffer (HBSS supplemented with 1% BSA, 5 mM HEPES and 1 mM IBMX, pH 7.4). The medium was aspirated and 100 μL of 95% EtOH was added to each well of the 24-well plate and cells were kept at −20° C. overnight. The EtOH was allowed to evaporate and 500 μL of lysis buffer (1% BSA, 5 mM HEPES and 0.3% Tween-20, pH 7.4) was added to each well. The plate was kept at −80° C. for 30 min and then at −20° C. until the day of detection when the samples were thawed. Intracellular cAMP levels were detected using an alpha screen cAMP kit (6760635D from Perkin Elmer).

Setting [3] is: glucose uptake in differentiated L6-myotubes, compound at 10 μM, activity relative to isoproterenol at 10 μM.
The mark [4] stands for this setting: intracellular cAMP in differentiated L6-myotubes, compound at 10 μM, activity relative to isoproterenol at 10 μM.
[5] abbreviates: glucose uptake, compound at 10 μM relative to isoproterenol at 10 μM.
The mark [6] stands for this setting: intracellular cAMP, compound at 10 μM relative to isoproterenol at 10 μM.

As to `CC(C)(C[C@H]1CC[C@@H](O)CC1)NC[C@H](O)c1cccc(F)c1` [Compound 302, (R)-2-{1,1-dimethyl-2-[(1s,4S)-4-hydroxycyclohexyl]ethylamino}-1-(m-fluorophenyl)-1-ethanol], the Emax at 10 µM in the assay on L6-myotubes [1] (setting [3]) was 50 to 75%; in the assay on L6-myotubes [2] (setting [4]) it was < 25%.

As for `CS(=O)(=O)N[C@H]1CC[C@H](CNC[C@H](O)c2cccc(F)c2)CC1` [Compound 311], the Emax at 10 µM was 50 to 75% with L6-myotubes [1] (setting [3]) and < 25% in the assay with L6-myotubes [2] (setting [4]).

For `O[C@@H](c1ccccc1F)C12CCC(CCc3cccnc3)(CC1)N2` [Compound 444, (R)-(o-fluorophenyl){4-[2-(3-pyridyl)ethyl]-7-azabicyclo[[2.2.1]]hept-1-yl}methanol], in the assay on L6-myotubes [1] (setting [3]), the “Biological example 2 (GU)” value was “+++ (If a compound at 10 μM shows activity of more than 75% of that of isoproterenol at 10 μM, the activity is denoted with +++)”. In the assay on L6-myotubes [2] (setting [4]), this molecule came in with an Emax at 10 µM of 50 to 75%.

Turning to `CC(C)(C)NC[C@H](O)c1ccc(F)cc1O` [Compound 80, (R)-2-(tert-butylamino)-1-(4-fluoro-2-hydroxyphenyl)-1-ethanol], the Emax at 10 µM in the assay on L6-myotubes [1] (setting [5]) is 50 to 75%; in the assay on L6-myotubes [2] (setting [6]), < 25%.

As for `CO[C@H]1CC[C@H](C[C@@H]2CC[C@H]([C@@H](O)c3ccccc3F)N2)CC1` [Compound 336, (S)-[(2R,5S)-5-{[(1r,4S)-4-methoxycyclohexyl]methyl}-2-pyrrolidinyl] (o-fluorophenyl)methanol], the Emax at 10 µM in the assay with L6-myotubes [1] (setting [3]) was 25 to 50%; in the assay with L6-myotubes [2] (setting [4]), < 25%.

On to `COc1ccc(C[C@@]2(C)CC[C@H]([C@H](O)c3cccc(F)c3)N2)cc1` [Compound 366, (R)-{(2R,5R)-5-[(p-methoxyphenyl)methyl]-5-methyl-2-pyrrolidinyl}(m-fluorophenyl)methanol], for which the Emax at 10 µM was > 75% in the assay with L6-myotubes [1] (setting [3]) and 25 to 50% in the assay on L6-myotubes [2] (setting [4]).

Regarding `CC1(C)CCC[C@H]([C@@H](O)c2ccccc2Cl)N1` [Compound 163, (S)-[(R)-6,6-dimethyl-2-piperidyl](o-chlorophenyl)methanol], the Emax at 10 µM in the assay on L6-myotubes [1] (setting [5]) is > 75%; with L6-myotubes [2] (setting [6]), < 25%.

As to `CC(C)(C)NC[C@H](O)c1cccc(O)c1F` [Compound 86, (R)-2-(tert-butylamino)-1-(2-fluoro-3-hydroxyphenyl)-1-ethanol], the Emax at 10 µM with L6-myotubes [1] (setting [5]) and in the assay with L6-myotubes [2] (setting [6]) was 50 to 75% throughout.

For `CC1(C)CCC[C@H]([C@@H](O)c2cccc(F)c2)N1` [Compound 101], the Emax at 10 µM in the assay with L6-myotubes [1] (setting [5]) was 25 to 50%; in the assay on L6-myotubes [2] (setting [6]) it was < 25%.

For the molecule `CC1(C)CC[C@H]([C@H](O)c2cccc(F)c2)N1` [Compound 110], the figures for the Emax at 10 µM with L6-myotubes [1] (setting [5]) and in the assay with L6-myotubes [2] (setting [6]) were > 75% and < 25%, respectively.

Take `CCCCNC[C@H](O)c1cccc(N)c1F` [Compound 90, (R)-1-(3-amino-2-fluorophenyl)-2-(butylamino)-1-ethanol]: the Emax at 10 µM was 50 to 75% in the assay with L6-myotubes [1] (setting [5]) and < 25% in the assay on L6-myotubes [2] (setting [6]).

For `COC(=O)[C@H]1CC[C@@H](CC(C)(C)NC[C@H](O)c2cncc(F)c2)CC1` [Compound 322, methyl (1S,4s)-4-{2-[(R)-2-(5-fluoro-3-pyridyl)-2-hydroxyethylamino]-2-methylpropyl} cyclohexanecarboxylate], the results for the Emax at 10 µM with L6-myotubes [1] (setting [3]) and in the assay with L6-myotubes [2] (setting [4]) were > 75% and < 25%, respectively.

For the molecule `CC(C)(C[C@H]1CC[C@H](O)CC1)NC[C@H](O)c1cncc(F)c1` [Compound 299, (R)-2-{1,1-dimethyl-2-[(1r,4R)-4-hydroxycyclohexyl]ethylamino}-1-(5-fluoro-3-pyridyl)-1-ethanol], the figures for the Emax at 10 µM in the assay on L6-myotubes [1] (setting [3]) and in the assay with L6-myotubes [2] (setting [4]) were 50 to 75% and < 25%, respectively.

Consider `CCCCNCC(O)c1ccc(=O)[nH]c1` (centres unmarked) [Compound 63, 5-[2-(butylamino)-1-hydroxyethyl]-2(1H)-pyridinone], for which the Emax at 10 µM is 25 to 50% in the assay on L6-myotubes [1] (setting [5]) and < 25% in the assay on L6-myotubes [2] (setting [6]).

Regarding `CO[C@H]1CC[C@H](C[C@@H]2CC[C@H]([C@H](O)c3cccc(F)c3)N2)CC1` [Compound 326, (R)-[(2R,5S)-5-{[(1r,4S)-4-methoxycyclohexyl]methyl}-2-pyrrolidinyl] (m-fluorophenyl)methanol], the Emax at 10 µM in the assay with L6-myotubes [1] (setting [3]) is > 75%; in the assay with L6-myotubes [2] (setting [4]) it was < 25%.

`CC1(C)CCC[C@H]([C@H](O)c2ccccc2F)N1` [Compound 177, (R)-[(R)-6,6-dimethyl-2-piperidyl](o-fluorophenyl)methanol]: the Emax at 10 µM with L6-myotubes [1] (setting [5]) is 50 to 75%; with L6-myotubes [2] (setting [6]) it was < 25%.

On to `CC1(C)CC[C@@H]([C@@H](O)c2cccc(F)c2)N1` [Compound 145, (S)-[(S)-5,5-dimethyl-2-pyrrolidinyl](m-fluorophenyl)methanol], for which the values for the Emax at 10 µM in the assay with L6-myotubes [1] (setting [5]) and with L6-myotubes [2] (setting [6]) were 25 to 50% and < 25%, respectively.

For `CC1(C)CCC[C@H]([C@@H](O)c2ccccc2F)N1` [Compound 176, (S)-[(R)-6,6-dimethyl-2-piperidyl](o-fluorophenyl)methanol], the Emax at 10 µM in the assay with L6-myotubes [1] (setting [5]) was > 75%; in the assay with L6-myotubes [2] (setting [6]), 25 to 50%.

`CO[C@H]1CCC[C@@H](C(C)(C)NC[C@H](O)c2cccc(F)c2)C1` [Compound 256, (R)-2-{1-[(1R,3S)-3-methoxycyclohexyl]-1-methylethylamino}-1-(m-fluorophenyl)-1-ethanol]: the Emax at 10 µM in the assay with L6-myotubes [1] (setting [3]) was > 75%; in the assay on L6-myotubes [2] (setting [4]), 25 to 50%.

For `CO[C@H]1CC[C@H](C[C@@H]2CC[C@H]([C@H](O)c3ccccc3F)N2)CC1` [Compound 337, (R)-[(2R,5S)-5-{[(1r,4S)-4-methoxycyclohexyl]methyl}-2-pyrrolidinyl] (o-fluorophenyl)methanol], the Emax at 10 µM was > 75% with L6-myotubes [1] (setting [3]) and < 25% in the assay with L6-myotubes [2] (setting [4]).

Turning to `C[C@H]1CC[C@@H]([C@@H](O)c2ccccc2)N1` (racemic) [Compound 39, Racemic mixture of (R)-[(2R,5R)-5-methyl-2-pyrrolidinyl] phenylmethanol and (S)-[(2S,5S)-5-methyl-2-pyrrolidinyl] phenylmethanol], the Emax at 10 µM with L6-myotubes [1] (setting [5]) is 50 to 75%; with L6-myotubes [2] (setting [6]) it was < 25%.

Regarding `CO[C@H]1CC[C@H](CCC23CCC([C@@H](O)c4cccc(F)c4)(CC2)N3)CC1` [Compound 411], in the assay on L6-myotubes [1] (setting [3]), the “Biological example 2 (GU)” value is “+++ (If a compound at 10 μM shows activity of more than 75% of that of isoproterenol at 10 μM, the activity is denoted with +++)”. The “Biological example 3 (CAMP)” value in the assay with L6-myotubes [2] (setting [4]) was “++ (if it is between 75 and 50% it is denoted with ++)”.

Turning to `CC(C)(C[C@H]1CC[C@@H](NC(=O)C(C)(C)C)CC1)NC[C@H](O)c1cncc(F)c1` [Compound 455], the Emax at 10 µM in the assay on L6-myotubes [1] (setting [3]) was 50 to 75%; in the assay with L6-myotubes [2] (setting [4]) it was < 25%.

As for `CC1(C)C[C@H]([C@H](O)c2ccccc2F)N1` [Compound 204, (R)-[(R)-4,4-dimethyl-2-azetidinyl](o-fluorophenyl)methanol], the results for the Emax at 10 µM with L6-myotubes [1] (setting [3]) and in the assay with L6-myotubes [2] (setting [4]) were > 75% and 25 to 50%, respectively.

Take `O[C@@H](c1cccc(F)c1)C12CCC(COCc3ccc(Cl)cc3)(CC1)N2` [Compound 395, (S)-(4-{[(p-chlorophenyl)methoxy]methyl}-7-azabicyclo[[2.2.1]]hept-1-yl)(m-fluorophenyl)methanol]: the Emax at 10 µM in the assay on L6-myotubes [1] (setting [3]) was 50 to 75%; in the assay with L6-myotubes [2] (setting [4]) it was < 25%.

In the case of `O[C@@H](CNCC[C@H]1CC[C@@H](OCc2ccccc2)CC1)c1cncc(F)c1` [Compound 291, (R)-1-(5-fluoro-3-pyridyl)-2-{2-[(1s,4S)-4-(benzyloxy)cyclohexyl]ethylamino}-1-ethanol], the Emax at 10 µM in the assay on L6-myotubes [1] (setting [3]) was 50 to 75%; in the assay with L6-myotubes [2] (setting [4]) it was < 25%.

For the molecule `COC(=O)[C@H]1CC[C@H](CCC(C)(C)NC[C@H](O)c2cncc(F)c2)CC1` [Compound 342, methyl (1R,4r)-4-{3-[(R)-2-(5-fluoro-3-pyridyl)-2-hydroxyethylamino]-3-methylbutyl} cyclohexanecarboxylate], the Emax at 10 µM in the assay with L6-myotubes [1] (setting [3]) was > 75%; in the assay with L6-myotubes [2] (setting [4]), < 25%.

For `CC(C)(C[C@H]1CC[C@@H](N)CC1)NC[C@H](O)c1cccc(F)c1` [Compound 456], the figures for the Emax at 10 µM in the assay on L6-myotubes [1] (setting [3]) and with L6-myotubes [2] (setting [4]) were > 75% and < 25%, respectively.

As for `CCCCNC[C@H](O)c1ccc(F)cc1` [Compound 46, (R)-2-(butylamino)-1-(p-fluorophenyl)-1-ethanol], the values for the Emax at 10 µM with L6-myotubes [1] (setting [5]) and with L6-myotubes [2] (setting [6]) were 50 to 75% and < 25%, respectively.

Regarding `O[C@@H](CNC[C@H]1CC[C@@H](O)CC1)c1cncc(F)c1` [Compound 269, (R)-1-(5-fluoro-3-pyridyl)-2-({[(1s,4S)-4-hydroxycyclohexyl]methyl}amino)-1-ethanol], the Emax at 10 µM with L6-myotubes [1] (setting [3]) is 25 to 50%; in the assay on L6-myotubes [2] (setting [4]), < 25%.

As for `CC12CCC([C@@H](O)c3ccccc3F)(CC1)N2` [Compound 180, (S)-(o-fluorophenyl)(4-methyl-7-azabicyclo[[2.2.1]]hept-1-yl)methanol], the Emax at 10 µM was > 75% in the assay with L6-myotubes [1] (setting [5]) and < 25% with L6-myotubes [2] (setting [6]).

(Values after US20260216294A1, “BETA 2-ADRENERGIC RECEPTOR AGONISTS FOR TREATMENT OR PREVENTION OF MUSCLE WASTING” (ATROGI AB, priority 2023, published 2026).)
